This note sets out measurements from article PMC3479139, “Diverse Small Molecule Inhibitors of Human Apurinic/Apyrimidinic Endonuclease APE1 Identified from a Screen of a Large Public Collection” (PLoS ONE, 2012).

Bounds are passed on as bounds.

By IC50 is commonly meant the point on the concentration scale where inhibition reaches its midpoint.

For assay [1], the target named is T1, APE1 (Homo sapiens, UniProt P27695).
T1 construct: made in house
Put plainly: Fluorescence polarization (FP) displacement assay of APE1 binding to AP-DNA probe.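 Note: TAMRA 5′-labeled duplex DNA with THF abasic site (5 nM) and APE1 (20 nM), Mg2+-free buffer, 15 min at room temperature, inhibition seen as lowered polarization.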 The note with it: read-out: FP IC50. On the technique in general: Fluorescence polarisation rises when a labelled molecule tumbles more slowly, as on binding a larger partner.

In assay [2] the target is double-stranded 17-mer DNA fragment. Description: ThO (Thiazole Orange) DNA displacement assay.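 Note: miniaturized displacement of the intercalating dye from unlabeled duplex DNA, used to flag nonspecific DNA binders, chiefly intercalators, groove binders may be missed.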 As to conditions: read-out: ThO-DNA binding IC50. The assay is classed as binding.
Description: The double-stranded 17-mer DNA fragment used in the ThO DNA binding assay was of the same sequence as the fluorogenic HTS substrate but carried no dye labels.
(§1) In order to screen out nonselective compounds, such as non-specific DNA binders and inhibitors of related enzymes, we used a miniaturized ThO DNA displacement assay and a counterscreen against the bacterial endonuclease E. coli Endo IV, respectively, following the previously published protocols [21].
To detect screening hits that inhibit APE1 activity through non-specific DNA interactions, we employed a previously established miniaturized ThO dye displacement assay [21]. […] We note that the ThO assay reports primarily on DNA binders acting through intercalation, while potentially missing other types of DNA binders, such as those acting through the minor groove.
Assay [3] has as its target T1, APE1. Description: Gel-based radiotracer (32P) APE1 incision assay.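 Note: APE1 incision reactions ran 5 min at 37 °C, with cleaved product and intact substrate resolved electrophoretically.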 The assay is classed as biochemical. Also noted: concentration or dose not given beside the values. As to conditions: percent incision shown; entries 1-112.
Assay [4] deals with T2, E. coli Endo IV (Escherichia coli, UniProt P0A6C1).
T2 construct: made in house
Description: E. coli Endo IV profiling counterscreen.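 For all read-outs here: selectivity counterscreen of candidate APE1 inhibitors against the bacterial endonuclease Endo IV, run in the same assay format as the primary APE1 high-throughput screen.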 The assay is classed as biochemical. As to conditions: for IC50: read-out: EndoIV IC50.
Description: as §1
To probe the selectivity of the candidate APE1 inhibitors, we tested them against E. coli EndoIV [36], employing the same assay as used in the HTS.

For assay [5], the target named is T1, APE1. Description: Fluorogenic kinetic qHTS APE1 incision assay (primary screen and retest of cherrypicked samples).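 Note: purified APE1 cleaving a fluorophore/dark-quencher labelled 17-mer duplex DNA bearing a tetrahydrofuran AP site, fluorescence rise followed kinetically over the first 2 min, inhibition normalized to controls.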 The assay is classed as biochemical.
Setting [6] is: initial quantitative high-throughput screen, read-out: APE1 qHTS IC50.
Where [7] appears, read: retest of cherrypicked sample, read-out: APE1 Retest IC50.

T1 sequence (P27695 whole entry): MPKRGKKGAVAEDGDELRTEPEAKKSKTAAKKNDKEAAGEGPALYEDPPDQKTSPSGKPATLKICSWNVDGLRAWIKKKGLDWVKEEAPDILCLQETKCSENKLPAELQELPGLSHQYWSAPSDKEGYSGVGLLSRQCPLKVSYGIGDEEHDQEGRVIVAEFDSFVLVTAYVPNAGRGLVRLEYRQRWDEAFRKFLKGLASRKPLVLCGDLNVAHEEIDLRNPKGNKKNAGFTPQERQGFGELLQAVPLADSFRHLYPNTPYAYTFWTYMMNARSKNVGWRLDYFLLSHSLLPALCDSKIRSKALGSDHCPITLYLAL

For the molecule `Cc1ccc2c(=O)c3ccccc3n(CCCN)c2c1C` [NCGC00161415], the IC50 in assay [1] worked out at 1.3 µM; in assay [2], 14.1 µM; in assay [5] (setting [6]) it was 4.5 µM; in assay [5] (setting [7]), 10 µM. Also, the “Radiotracer Assay (%Activity)” value in assay [3] is given as 4.6%. Moreover, the “Concentration response against EndoIV” value in assay [4] is recorded as “complete concentration response curves”.

Consider `O=C(O)CCCN1C(=O)/C(=C/C=C/c2ccco2)SC1=S` [MLS000778631], for which the IC50 in assay [1] is > 57 µM; in assay [2], > 57 µM; in assay [4] it was > 57 µM; in assay [5] (setting [6]) it was 35.5 µM; in assay [5] (setting [7]), 5 µM. The “Radiotracer Assay (%Activity)” value in assay [3] amounted to 41%.

For the molecule `CSC1=N/C(=C\c2ccc(Br)o2)C(=O)S1` [MLS000534059], the half-maximal inhibitory concentration (IC50) is > 57 µM in assay [1], > 57 µM in assay [2], > 57 µM in assay [4] and 8.9 µM in assay [5] (setting [7]). In addition, the “Radiotracer Assay (%Activity)” value in assay [3] stood at 36%.

Take `O=C1CCCC(O)=C1N=Nc1ccc(C(=O)O)cc1` [MLS000759943]: the IC50 in assay [1] was > 57 µM; in assay [2] it was > 57 µM; in assay [4], > 57 µM; in assay [5] (setting [6]), 8.9 µM; in assay [5] (setting [7]), 10 µM. For the same molecule, the “Radiotracer Assay (%Activity)” value in assay [3] worked out at 47%.

As for `CCCSC1=N/C(=C\C=C\c2ccco2)C(=O)S1` [MLS000114057], the 50% inhibitory concentration (IC50) was > 57 µM in assay [1]; > 57 µM in assay [2]; > 57 µM in assay [4]; 4 µM in assay [5] (setting [6]); 17.8 µM in assay [5] (setting [7]). Further, the “Radiotracer Assay (%Activity)” value in assay [3] is 40%.

In the case of `Cn1cnnc1SCC(=O)Nc1nc(-c2ccccc2)cs1` [MLS000711532], the half-inhibitory concentration (IC50) was > 57 µM in assay [1]; > 57 µM in assay [2]; > 57 µM in assay [4]; 28.2 µM in assay [5] (setting [6]); 10 µM in assay [5] (setting [7]). Besides, the “Radiotracer Assay (%Activity)” value in assay [3] was found to be 32%.

Take `CN(C)C(=O)Nc1ccc(Cl)c(Cl)c1` [NCGC00094525]: the IC50 in assay [1] was > 57 µM; in assay [2] it was > 57 µM; in assay [4], > 57 µM; in assay [5] (setting [6]), 20 µM; in assay [5] (setting [7]) it was 44.7 µM. Besides, the “Radiotracer Assay (%Activity)” value in assay [3] was 36.6%.

As to `O=C(/C=C/c1ccco1)NCc1ccco1` [MLS000768482], the 50% inhibitory concentration (IC50) in assay [1] is > 57 µM; in assay [2], > 57 µM; in assay [4] it was > 57 µM; in assay [5] (setting [6]), 22.4 µM; in assay [5] (setting [7]) it was 4.5 µM. For the same molecule, in assay [3], the “Radiotracer Assay (%Activity)” value is reported as 21%.

As for `O=C1CCCC(O)=C1N=Nc1cccc(C(=O)O)c1` [MLS000759952], the IC50 was > 57 µM in assay [1]; > 57 µM in assay [2]; > 57 µM in assay [4]; 10 µM in assay [5] (setting [6]); 12.6 µM in assay [5] (setting [7]). Besides, the “Radiotracer Assay (%Activity)” value in assay [3] is on record as 10%.

`O=C(O)c1ccc(-n2cccc2/C=C2/NC(=O)N(c3ccccc3)C2=O)cc1` [MLS000778414]: the IC50 is 12.6 µM in assay [1]; > 57 µM in assay [2]; > 57 µM in assay [4]; 2.5 µM in assay [5] (setting [6]); 4 µM in assay [5] (setting [7]). Further, the “Radiotracer Assay (%Activity)” value in assay [3] stood at 37%.

For `CC(C)C(C(=O)O)N1C(=O)/C(=C/C=C/c2ccco2)SC1=S` (stereo not drawn) [MLS000551672], the concentration for half-maximal inhibition (IC50) in assay [1] was 11.2 µM; in assay [2], > 57 µM; in assay [4] it was > 57 µM; in assay [5] (setting [6]) it was 1.6 µM; in assay [5] (setting [7]), 2.5 µM. Moreover, in assay [3], the “Radiotracer Assay (%Activity)” value amounted to 19%.

Take `O=C(Nc1ccc2nc(-c3ccco3)c(-c3ccco3)nc2c1)N1CCCCCC1` [MLS000050353]: the IC50 in assay [1] is 12.6 µM; in assay [2], > 57 µM; in assay [4], 15.8 µM; in assay [5] (setting [6]) it was 3.5 µM; in assay [5] (setting [7]), 4 µM. The “Radiotracer Assay (%Activity)” value in assay [3] was 41%.

In the case of `O=c1cc(-c2ccc(O)cc2)oc2c(C3OCC(O)C(O)C3O)c(O)c(C3OC(CO)C(O)C(O)C3O)c(O)c12` (stereo not drawn) [MLS000876755], the half-maximal inhibitory concentration (IC50) in assay [1] is > 57 µM; in assay [2] it was > 57 µM; in assay [4], > 57 µM; in assay [5] (setting [6]) it was 19.9 µM; in assay [5] (setting [7]), 4.5 µM. In addition, the “Radiotracer Assay (%Activity)” value in assay [3] is listed as 31%.

As to `O=c1oc2c(O)c(O)cc3c(=O)oc4c(O)c(O)cc1c4c23` [NCGC00094975], the IC50 in assay [1] is 31.6 µM; in assay [2], 0.1 µM; in assay [4], > 57 µM; in assay [5] (setting [6]), 0.01 µM; in assay [5] (setting [7]), 0.01 µM. Further, in assay [3], the “Radiotracer Assay (%Activity)” value came to 2.4%.

With `CCN(CC)c1ccc(C(=C2C=CC(=[N+](CC)Cc3cccc(S(=O)(=O)[O-])c3)C=C2)c2ccc(N(CC)Cc3cccc(S(=O)(=O)O)c3)cc2)cc1` [NCGC00166058], the IC50 in assay [1] worked out at 31.6 µM; in assay [2] it was 35.5 µM; in assay [4], 28.2 µM; in assay [5] (setting [6]), 31.6 µM; in assay [5] (setting [7]) it was 25.1 µM. In addition, the “Radiotracer Assay (%Activity)” value in assay [3] came to 13.4%. The “Concentration response against EndoIV” value in assay [4] was “complete concentration response curves”.
